The data set deals with Rhipicephalus sanguineus (Brown Dog Tick). As to the kind of experiment: whole plant or invertebrate. To be noted: for Contact SP Rhicicep PCT Mortality (%): 200 ppm; for mortality at 200 ppm: Rhipicephalus sanguineus, read-out: Contact SP Rhicicep PCT Mortality (%). An excerpt: A solution of the test compound was used to coat the inner wall of glass vials and to treat two filter papers. Once dried, one filter paper was placed in the cap of the vial and the other in the bottom of the vial. Each treated vial was infested with 10 adult Rhipicephalus sanguineus (Brown Dog Tick). […]

Read-outs that look alike come from different tables or passages of the source.

In the case of `CCNC(=O)c1ccc(COc2ccc(OC(F)(F)F)cc2)cn1` [Compound 23], the “Contact SP Rhicicep PCT Mortality (%)” value stood at 80% (timepoint 4 hrs) and 90% (timepoint 24 hrs).
On to `CCc1cccc(OCc2ccc(C(=O)NCC3CCOCC3)nc2)c1` [Compound 68], for which the mortality (commonly the share of the test organisms that died) at 200 ppm stood at 50% (timepoint 4 hrs) and 90% (timepoint 24 hrs).
On to `CCc1cccc(OCc2ccc(C(=O)NCCSC)nc2)c1` [Compound 70], for which the “Contact SP Rhicicep PCT Mortality (%)” value by setting is: (timepoint 4 hrs) 80%; (timepoint 24 hrs) 100%.
With `O=C(NCc1ccncc1)c1ccc(COc2cc(F)cc(Br)c2)cn1` [Compound 114], the “Contact SP Rhicicep PCT Mortality (%)” value is, setting by setting: (timepoint 4 hrs) 40%; (timepoint 24 hrs) 60%.
For `CCCNC(=O)c1ccc(COc2cc(F)cc(Br)c2)cn1` [Compound 120] the same measures were 60% and 70%.
As for `C=C(C)CNC(=O)c1ccc(COc2cccc(OC)c2)cn1` [Compound 150], the “Contact SP Rhicicep PCT Mortality (%)” value by setting is: (timepoint 4 hrs) 70%; (timepoint 24 hrs) 70%.
On to `COc1cccc(OCc2ccc(C(=O)NCC(C)C)nc2)c1` [Compound 151], for which the “Contact SP Rhicicep PCT Mortality (%)” value (timepoint 4 hrs) is on record as 0% and the “Contact SP Rhicicep PCT Mortality (%)” value (timepoint 24 hrs) came to 80%.
In the case of `CC(C)CNC(=O)c1ccc(COc2ccc(F)c(F)c2)cn1` [Compound 155], the “Contact SP Rhicicep PCT Mortality (%)” value is 60% (timepoint 4 hrs) and 100% (timepoint 24 hrs).
Regarding `COCCCNC(=O)c1ccc(COc2cccc(-c3cccc(F)c3)c2)cn1` [Compound 166], the “Contact SP Rhicicep PCT Mortality (%)” value by setting is: (timepoint 4 hrs) 40%; (timepoint 24 hrs) 80%.
With `COC(CNC(=O)c1ccc(COc2cccc(-c3cccc(F)c3)c2)cn1)OC` [Compound 167], the “Contact SP Rhicicep PCT Mortality (%)” value is 100% (timepoint 4 hrs) and 100% (timepoint 24 hrs).
With `CSCCNC(=O)c1ccc(COc2cccc(-c3cccc(F)c3)c2)cn1` [Compound 174], the “Contact SP Rhicicep PCT Mortality (%)” value runs as follows: (timepoint 4 hrs) 90%; (timepoint 24 hrs) 100%.
For `CCC(C)CNC(=O)c1ccc(COc2cccc(-c3cccc(F)c3)c2)cn1` (centres unmarked) [Compound 181] the same measures were 70% and 90%.
For `CCOc1cccc(OCc2ccc(C(=O)NCC(C)C)nc2)c1` [Compound 199], the “Contact SP Rhicicep PCT Mortality (%)” value by setting is: (timepoint 4 hrs) 100%; (timepoint 24 hrs) 100%.
As to `CC(C)CNC(=O)c1ccc(CCOc2cccc(C(F)(F)F)c2)cn1` [Compound 209], the mortality at 200 ppm by setting is: (timepoint 4 hrs) 90%; (timepoint 24 hrs) 100%.
Take `CC(C)(C)CNC(=O)c1ccc(COCc2ccc(Cl)cc2)cn1` [Compound 216]: the “Contact SP Rhicicep PCT Mortality (%)” value is, setting by setting: (timepoint 4 hrs) 0%; (timepoint 24 hrs) 60%.
On to `O=C(NCC1CCOCC1)c1ccc(CCOc2cccc(C(F)(F)F)c2)cn1` [Compound 220], for which the mortality at 200 ppm runs as follows: (timepoint 4 hrs) 100%; (timepoint 24 hrs) 100%.
In the case of `CCC(C)CNC(=O)c1ccc(CCOc2cccc(C(F)(F)F)c2)cn1` (centres unmarked) [Compound 221], the mortality at 200 ppm (timepoint 4 hrs) is 90% and the mortality at 200 ppm (timepoint 24 hrs) is 100%.
Regarding `CC(C)CNC(=O)c1ccc(CCOc2ccc(F)c(OC(F)(F)F)c2)cn1` [Compound 222], the “Contact SP Rhicicep PCT Mortality (%)” value (timepoint 4 hrs) is 90% and the “Contact SP Rhicicep PCT Mortality (%)” value (timepoint 24 hrs) amounted to 100%.
For `CC(C)CNC(=O)c1ccc(CCOc2cc(Cl)cc(Cl)c2)cn1` [Compound 225], the mortality at 200 ppm (timepoint 4 hrs) came out at 90% and the mortality at 200 ppm (timepoint 24 hrs) turned out to be 100%.
As to `CC(C)CNC(=O)c1ccc(COCc2ccc(Cl)c(OC(F)(F)F)c2)cn1` [Compound 227], the “Contact SP Rhicicep PCT Mortality (%)” value is on record as 100% (timepoint 4 hrs) and 100% (timepoint 24 hrs).
Turning to `CC(C)CNC(=O)c1ccc(COCc2ccc(F)c(OC(F)(F)F)c2)cn1` [Compound 228], the mortality at 200 ppm (timepoint 4 hrs) stood at 90% and the mortality at 200 ppm (timepoint 24 hrs) turned out to be 90%.
For the compound `CC(C)CNC(=O)c1ccc(COCc2cc(F)cc(C(F)(F)F)c2)cn1` [Compound 229], the mortality at 200 ppm (timepoint 4 hrs) was 80% and the mortality at 200 ppm (timepoint 24 hrs) came to 80%.
As to `CC(C)CNC(=O)c1ccc(COCc2ccc(C(F)(F)F)cc2F)cn1` [Compound 232], the mortality at 200 ppm (timepoint 4 hrs) worked out at 100% and the mortality at 200 ppm (timepoint 24 hrs) was determined as 100%.
Regarding `CC(C)CNC(=O)c1ccc(COCc2ccc(Cl)cc2)cn1` [Compound 234], the mortality at 200 ppm by setting is: (timepoint 4 hrs) 90%; (timepoint 24 hrs) 90%.
For `CC(C)CNC(=O)c1ccc(CCOc2ccc(Br)c(OC(F)(F)F)c2)cn1` [Compound 237], the mortality at 200 ppm was determined as 90% (timepoint 4 hrs) and 100% (timepoint 24 hrs).
Turning to `CC(C)CCNC(=O)c1ccc(CCOc2cccc(OC(F)(F)F)c2)cn1` [Compound 240], the mortality at 200 ppm by setting is: (timepoint 4 hrs) 90%; (timepoint 24 hrs) 90%.
`CCC(C)NC(=O)c1ccc(CCOc2cccc(OC(F)(F)F)c2)cn1` (centres unmarked) [Compound 241]: the mortality at 200 ppm stood at 50% (timepoint 4 hrs) and 90% (timepoint 24 hrs).
`CCC(C)CNC(=O)c1ccc(CCOc2cccc(OC(F)(F)F)c2)cn1` (centres unmarked) [Compound 242]: the mortality at 200 ppm reads like this: (timepoint 4 hrs) 70%; (timepoint 24 hrs) 90%.
For `O=C(NCC1CCOCC1)c1ccc(COc2ccc(C(F)(F)F)cc2Br)cn1` [Compound 256], the “Contact SP Rhicicep PCT Mortality (%)” value by setting is: (timepoint 4 hrs) 90%; (timepoint 24 hrs) 100%.
Consider `O=C(NCC1CCOCC1)c1ccc(COc2ccc(C(F)(F)F)cc2F)cn1` [Compound 257], for which the “Contact SP Rhicicep PCT Mortality (%)” value (timepoint 4 hrs) came out at 80% and the “Contact SP Rhicicep PCT Mortality (%)” value (timepoint 24 hrs) came to 90%.
In the case of `O=C(NCC1CCOCC1)c1ccc(COCc2ccc(Cl)cc2)cn1` [Compound 259], the mortality at 200 ppm amounted to 80% (timepoint 4 hrs) and 90% (timepoint 24 hrs).
On to `O=C(NCC1CCOCC1)c1ccc(COCc2ccccc2Cl)cn1` [Compound 260], for which the “Contact SP Rhicicep PCT Mortality (%)” value was 90% (timepoint 4 hrs) and 100% (timepoint 24 hrs).
Consider `O=C(NCC1CCOCC1)c1ccc(COCc2ccccc2C(F)(F)F)cn1` [Compound 266], for which the mortality at 200 ppm stood at 70% (timepoint 4 hrs) and 90% (timepoint 24 hrs).
Regarding `CC(C)CNC(=O)c1ccc(CCOc2cc(F)cc(C(F)(F)F)c2)cn1` [Compound 278], the “Contact SP Rhicicep PCT Mortality (%)” value (timepoint 4 hrs) came to 70% and the “Contact SP Rhicicep PCT Mortality (%)” value (timepoint 24 hrs) is recorded as 100%.
Turning to `CC(C)CNC(=O)c1ccc(COCc2ccc(C(F)(F)F)c(F)c2)cn1` [Compound 283], the “Contact SP Rhicicep PCT Mortality (%)” value (timepoint 4 hrs) is 100% and the “Contact SP Rhicicep PCT Mortality (%)” value (timepoint 24 hrs) was 100%.
For the compound `CC(C)CNC(=O)c1ccc(COCc2ccc(C(F)(F)F)c(Cl)c2)cn1` [Compound 284], the “Contact SP Rhicicep PCT Mortality (%)” value reads like this: (timepoint 4 hrs) 90%; (timepoint 24 hrs) 100%.
As for `CC(C)CNC(=O)c1ccc(COCc2cccc(F)c2F)cn1` [Compound 290], the “Contact SP Rhicicep PCT Mortality (%)” value turned out to be 80% (timepoint 4 hrs) and 80% (timepoint 24 hrs).
